These results are taken from US8093218B2, “Peptide derived from vascular endothelial growth factor receptor-1 binding integrin α5β1 having proangiogenic activity” (Provincia Italiana della Congregazione dei Figli …, priority 2006, dated 2012).

“Also recorded” adds a separate entry of the source.

Experiment [1] relates to HUVEC adhesion to VEGFR-1/Fc. In words: inhibition by peptides of EC adhesion to VEGFR-1/Fc. Format: cell-based, human. The note with it: peptide added to HUVEC suspension before plating. As for the experimental part:
(§1) In order to test the ability of the twelve chosen peptides to inhibit the adhesion of the EC to VEGFR-1 mediated from the integrin α5β1, every peptide was added to one suspension of HUVEC before plated on dishes covered with VEGFR-1/Fc or fibronectin (FN). The data were indicated as percentage of adhesion, calculated to the number of cells adhered on the substrate itself in absence of peptides.

For experiment [2], the system named is HUVEC adhesion to fibronectin (FN). In words: inhibition by peptides of EC adhesion to fibronectin. The note with it: peptide added to HUVEC suspension before plating. Format: cell-based, human. As to the method:
as §1

The test system of experiment [3] is HUVEC. In words: adhesion of HUVEC on plates with covalently linked peptides. Format: cell-based, human. The note with it: HUVEC incubated 1 hour on covalently linked peptide. As for the experimental part:
To establish whether the four peptides, were able to inhibit the adhesion of the EC to VEGFR-1, by supporting directly the adhesion of the EC, the peptides were linked covalently to plates and the HUVEC were incubated on plates for 1 hour. The peptide 1 was used as negative control and the peptide RGD as the positive control. Unspecific adhesion was measured by absorbance in the plates covered with BSA.

Experiment [4] deals with HUVEC adhesion to peptide 12. In words: adhesion of HUVEC to peptide 12 in presence of chelating agents or anti-integrin antibodies. Format: cell-based, human. The following applies: EDTA or EGTA treatment. As for the experimental part:
The peptide 12 or the BSA, as non-specific adhesion control, were linked on plates and the HUVEC added in the presence of chelating agents (EDTA or EGTA).
The HUVEC were pre-incubated with an antibody against the integrin α5β1 or versus the integrinic subunit α6 and left to adhere on plates covered with peptide 12 or BSA.

The subject of experiment [5] is HUVEC migration induced from VEGFR-1/Fc. In words: EC migration in Boyden chambers induced by VEGFR-1/Fc. Format: cell-based, human. The note with it: HUVEC pre-incubated with peptide. As for the experimental part: (§2) In order to investigate the ability to peptide 12 to influence the migration of the EC induced from VEGFR-1/Fc, a process mediated from the integrin α5β1, the HUVEC were pre-incubated with peptide 12 and peptide 1 and placed in Boyden chambers in order to analyze the migration induced from VEGFR-1/Fc or fibronectin (FN). Data represent the average of 14 microscopic fields and are referred to as percentage of inhibition compared to the migration observed in the absence of peptides.

The subject of experiment [6] is HUVEC migration induced by fibronectin (FN). In words: EC migration in Boyden chambers induced by fibronectin. Format: cell-based, human. The following applies: HUVEC pre-incubated with peptide. As to the method:
as §2

In experiment [7] the test system is HUVEC. In words: formation of tubules of EC in Type I collagen gel. Format: cell-based, human. As for the experimental part:
It was tested the ability of the peptide 12 to induce the formation of tubules of EC. HUVEC cells were plated on 24 wells plates previously covered with a mixture of gel Type I collagen, in the absence or presence of 500 μg/ml peptide 12 or peptide 1. A second layer of gel Type I collagen was placed on the adherent cells. As shown, in the absence or presence of peptides, were added, in the culture medium, different concentrations of VEGF (40 or 100 nM), or 20 μg/ml of protein VEGFR-1/Fc.

Experiment [8] has as its system rabbit corneal tissue. In words: rabbit corneal neovascularization with peptide-releasing pellets. Format: in vivo. The following applies: rabbit cornea, monitored for 17 days. From the text: The FIGS. 6A and 6B show the effect on angiogenesis of the peptide 12 or Y220 compare to VEGF at different concentrations.
To address the angiogenic role, in vivo, pellets releasing peptide 12 were implanted into rabbit corneal tissue and neovascularization was monitored for 17 days.

Experiment [9] concerns the target integrin α5β1 (Homo sapiens, UniProt P05556+P08648). In words: integrin α5β1 aggregation around peptide-coated magnetic beads (immunostaining). Also on record: endogenous in cells; host or cells: HUVEC. The following applies: magnetic beads coated with peptide, immunostaining for integrin α5β1. Format: cell-based. As for the experimental part:
The integrins not linked are widely distributed on cellular membrane, but after the ligand binding and the activation merged in distinct structures called focal contacts and ECM contact.
It was examined whether the peptide 12 was able to induce aggregation of integrin α5β1 after the binding. EC adherent cells were incubated with magnetic beads coated with peptide 12, or peptide RGD or peptide RGE respectively as positive and negative controls, and immunostained with an antibody against integrin α5β1.

Sequence of integrin α5β1 (P08648 42-894 limits assumed): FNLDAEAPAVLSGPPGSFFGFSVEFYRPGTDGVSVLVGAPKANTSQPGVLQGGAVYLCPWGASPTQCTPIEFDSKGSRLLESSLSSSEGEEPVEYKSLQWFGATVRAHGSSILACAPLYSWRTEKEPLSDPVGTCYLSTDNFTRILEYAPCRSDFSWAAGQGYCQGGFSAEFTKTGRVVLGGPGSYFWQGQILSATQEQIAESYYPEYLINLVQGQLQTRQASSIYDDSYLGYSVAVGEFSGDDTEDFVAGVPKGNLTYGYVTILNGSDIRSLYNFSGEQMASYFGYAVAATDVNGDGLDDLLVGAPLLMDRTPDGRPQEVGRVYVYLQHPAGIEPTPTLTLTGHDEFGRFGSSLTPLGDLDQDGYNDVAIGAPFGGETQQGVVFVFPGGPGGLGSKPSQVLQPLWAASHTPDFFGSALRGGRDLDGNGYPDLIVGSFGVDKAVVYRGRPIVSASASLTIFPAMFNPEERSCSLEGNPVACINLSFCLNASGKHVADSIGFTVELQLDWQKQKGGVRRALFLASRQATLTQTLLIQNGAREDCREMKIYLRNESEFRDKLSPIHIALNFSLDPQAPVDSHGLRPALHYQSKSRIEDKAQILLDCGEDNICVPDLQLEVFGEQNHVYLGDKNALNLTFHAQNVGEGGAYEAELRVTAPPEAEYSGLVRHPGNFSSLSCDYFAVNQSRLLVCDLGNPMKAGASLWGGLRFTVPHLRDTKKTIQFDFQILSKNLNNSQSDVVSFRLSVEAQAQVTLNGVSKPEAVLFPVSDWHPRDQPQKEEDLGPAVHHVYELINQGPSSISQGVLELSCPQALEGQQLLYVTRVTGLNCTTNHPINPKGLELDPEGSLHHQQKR
Sequence of integrin α5β1 (P08648 895-1049 partner limits assumed): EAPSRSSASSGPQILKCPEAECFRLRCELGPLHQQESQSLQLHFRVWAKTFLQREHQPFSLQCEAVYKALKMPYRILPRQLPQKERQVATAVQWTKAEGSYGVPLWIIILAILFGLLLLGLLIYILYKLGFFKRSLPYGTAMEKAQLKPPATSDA
Sequence of integrin α5β1 (P05556 21-798): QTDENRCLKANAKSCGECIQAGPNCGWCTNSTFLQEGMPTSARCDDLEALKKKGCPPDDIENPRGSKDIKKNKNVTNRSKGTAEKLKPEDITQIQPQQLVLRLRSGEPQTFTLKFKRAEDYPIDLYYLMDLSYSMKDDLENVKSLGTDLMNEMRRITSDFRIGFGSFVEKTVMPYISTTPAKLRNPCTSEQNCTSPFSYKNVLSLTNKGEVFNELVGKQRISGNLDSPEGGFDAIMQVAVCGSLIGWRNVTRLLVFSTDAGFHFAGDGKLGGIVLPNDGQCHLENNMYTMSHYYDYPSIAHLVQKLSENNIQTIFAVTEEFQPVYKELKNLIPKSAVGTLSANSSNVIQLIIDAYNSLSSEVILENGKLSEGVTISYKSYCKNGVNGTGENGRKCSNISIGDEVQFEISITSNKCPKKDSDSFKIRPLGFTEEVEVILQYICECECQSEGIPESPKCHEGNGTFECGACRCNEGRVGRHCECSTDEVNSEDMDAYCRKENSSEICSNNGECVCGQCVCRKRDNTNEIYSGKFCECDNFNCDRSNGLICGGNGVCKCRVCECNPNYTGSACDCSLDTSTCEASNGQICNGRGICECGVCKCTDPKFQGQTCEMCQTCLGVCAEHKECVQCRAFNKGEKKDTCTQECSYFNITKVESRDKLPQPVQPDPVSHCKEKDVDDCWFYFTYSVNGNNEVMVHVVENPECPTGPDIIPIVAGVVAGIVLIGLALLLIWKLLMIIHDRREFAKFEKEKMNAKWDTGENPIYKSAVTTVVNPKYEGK

Consider “NYLTHRQ (listed as Homo sapiens) [peptide 12]”, for which the “inhibition of adhesion of EC to VEGFR-1/Fc” value in experiment [1] was “effectively blocked; also recorded: inhibit cellular adhesion to sVEGFR-1”. For the same substance, the “inhibition of adhesion of EC to fibronectin” value in [2] is “partially inhibit”. Also, in experiment [3], the “direct support of EC adhesion by plate-linked peptide” value is “induced the adhesion of EC; also recorded: directly supports the adhesion of EC”. Further, the “dependence of EC adhesion to peptide 12 on divalent cations” value in experiment [4] is “requires divalent cations; also recorded: sensitive to divalent cations”. Also, the “inhibition of EC migration induced by VEGFR-1/Fc” value in experiment [5] was “completely annulled the migratory response; also recorded: inhibits the induced cellular migration from VEGFR-1”. The “inhibition of EC migration induced by fibronectin” value in experiment [6] is listed as “no significant inhibition”. Besides, the “effect on VEGF-induced tubule formation” value in experiment [7] (500 μg/ml peptide with VEGF 40 nM) is given as “increased the formation of induced VEGF tubules”. For the same substance, the “induction of formation of tubules of EC” value in experiment [7] (500 μg/ml peptide, collagen I matrix) is “able to induce in vitro the formation of vascular structures”. The “formation of vascular structures in presence of VEGFR-1/Fc” value in experiment [7] (peptide in presence of VEGFR-1/Fc (data not shown)) is on record as “partially maintained its ability to induce the formation of vascular structures”. In addition, the corneal neoangiogenesis entry in [8] is recorded as “strongly promoted neoangiogenesis”. For the same substance, the “integrin α5β1 aggregation / bead attachment on EC” value in experiment [9] is “A separate colouring for integrin α5β1 was observed around the beads”.
